Reference: US7078403B1, “Antiviral agents” (Biota Scientific Management Pty Ltd., priority 1999, dated 2006)

Tests used:
HRV type 2 = experiment: Inhibition of viral cytopathic effect (CPE), visual scoring or neutral red, HRV type 2 in KB cells; format: cell-based, human rhinovirus; details: for Activity on Rhinovirus Type 2 EC50: HRV type 2 in KB cells, CPE inhibition; for Activity on Rhinovirus Type 2 SI: selectivity index = CC50 or MTC divided by EC50, HRV type 2, KB cells
[1] = test system: human embryo lung (MRC-5) cells; experiment: Cytotoxicity (CC50 or MTC) in uninfected MRC-5 cells; details: unit not given
HRV type 1A = experiment: Inhibition of viral cytopathic effect (CPE), visual scoring or neutral red, HRV type 1A in MRC-5 cells; format: cell-based, human rhinovirus; details: for Activity on Rhinovirus Type 1A EC50: HRV type 1A in MRC-5 cells, CPE inhibition; for Activity on Rhinovirus Type 1A SI: selectivity index = CC50 or MTC divided by EC50, HRV type 1A, MRC-5 cells
Rhinovirus Type 14 = format: cell-based, human rhinovirus; details: HRV-14

| SMILES | Activity on Rhinovirus Type 2 EC50 (HRV type 2) [µg/mL] | Activity on Rhinovirus Type 2 SI (HRV type 2) | Activity on Rhinovirus Type 1A MTC [1] | Activity on Rhinovirus Type 1A EC50 (HRV type 1A) [µg/mL] | Activity on Rhinovirus Type 1A SI (HRV type 1A) | Activity on Rhinovirus Type 14 EC50 (Rhinovirus Type 14) [µg/mL] |
| --- | --- | --- | --- | --- | --- | --- |
| CCON=C(C)c1cc(OC)c(OCCC2CCN(c3ccc(Cl)nn3)CC2)c(OC)c1 [Compound 6] | 0.1 | >500 | >10.00 | 0.06 | >167.09 | – |
| CON=C(C)c1ccc(OCCC2CCN(c3ccc(C)nn3)CC2)cc1 [Compound 9] | 0.08 | >13 | >1 | <0.0032 | >312 | – |
| CCC(=NOC)c1ccc(OCCC2CCN(c3ccc(Cl)nn3)CC2)cc1 [Compound 10] | 0.4 | >3 | >1 | 0.0142 | >70.54 | – |
| CC(C)ON=Cc1ccc(OCCC2CCN(c3ccc(Cl)nn3)CC2)cc1 [Compound 12] | 0.02 | 50 | >1 | 0.00355 | >273.7 | – |
| N#CCON=Cc1ccc(OCCC2CCN(c3ccc(Cl)nn3)CC2)cc1 [Compound 14] | 0.046 | 13 | >1 | <0.0032 | >312 | – |
| Clc1ccc(N2CCC(CCOc3ccc(C=NOCc4ccccc4)cc3)CC2)nn1 [Compound 15] | 0.9 | <1 | >1.0 | >1.0 | – | – |
| CON=Cc1cccc(OCCC2CCN(c3ccc(Cl)nn3)CC2)c1 [Compound 16] | <0.001 | >1000 | >1 | <0.0032 | >312 | – |
| CON=Cc1ccc(OC)c(OCCC2CCN(c3ccc(Cl)nn3)CC2)c1 [Compound 17] | >1 | – | >1 | 0.00612 | >163.2 | – |
| CON=C(C)c1ccc(OCCC2CCN(c3ccc(Cl)nn3)CC2)c(OC)c1 [Compound 19] | 0.019 | >53 | >1 | <0.0032 | >312 | – |
| CCOCCOCCON=Cc1ccc(OCCC2CCN(c3ccc(Cl)nn3)CC2)cc1 [Compound 20] | 3 | 1 | >50.00 | 3.28 | >15.24 | – |
| CCON=Cc1ccc(OCCC2CCN(c3ccc(OCC(F)(F)F)nn3)CC2)cc1 [Compound 21] | 0.3 | >3 | >1 | >1 | – | – |
| CON=Cc1cc(C)c(OCCCc2cc(C)no2)c(C)c1 [Compound 22] | <0.05 | >400 | 36.0 | <0.16 | >320 | – |
| C=CCON=Cc1cc(C)c(OCCCc2cc(C)no2)c(C)c1 [Compound 23] | <0.05 | >340 | >50 | <0.16 | >320 | – |
| Cc1cc(CCCOc2c(C)cc(C=NOCc3ccccc3)cc2C)on1 [Compound 25] | 0.5 | 34 | >50 | 0.36 | >139.4 | – |
| CCON=Cc1ccc(OCCC2CCN(c3ccc(OC)nn3)CC2)cc1 [Compound 26] | 0.16 | >6 | >1 | 0.077 | >13.0 | – |
| CCON=Cc1ccc(OCCN2CCN(c3ccc(Cl)nn3)CC2)cc1 [Compound 27] | 0.1 | >10 | >1 | 0.017 | >59.6 | – |
| CCON=Cc1ccc(OCC2CCCN(c3ccc(Cl)nn3)C2)cc1 (stereo not shown) [Compound 28] | 0.06 | >17 | >1 | 0.180 | >5.5 | – |
| CCON=Cc1ccc(OCC2CCN(c3ccc(Cl)nn3)CC2)cc1 [Compound 31] | 0.003 | >333 | >1 | 0.017 | >59.6 | – |
| CCON=Cc1ccc(OCCCC2CCN(c3ccc(Cl)nn3)CC2)cc1 [Compound 32] | 0.014 | >70 | >1 | 0.222 | >4.5 | – |
| CCON=C(CC)c1ccc(OCCC2CCN(c3ccc(Cl)nn3)CC2)cc1 [Compound 34] | 0.7 | >1 | >1 | 0.627 | >1.59 | – |

| SMILES | Activity on Rhinovirus Type 2 EC50 (HRV type 2) [µg/mL] | Activity on Rhinovirus Type 2 SI (HRV type 2) | Activity on Rhinovirus Type 1A MTC [1] | Activity on Rhinovirus Type 1A EC50 (HRV type 1A) [µg/mL] | Activity on Rhinovirus Type 1A SI (HRV type 1A) | Activity on Rhinovirus Type 14 EC50 (Rhinovirus Type 14) [µg/mL] |
| --- | --- | --- | --- | --- | --- | --- |
| CCON=Cc1ccc(OCCC2CCN(c3ccc(Cl)nn3)CC2)c([N+](=O)[O-])c1 [Compound 36] | 0.03 | >33 | 0.89 | 0.009 | 99.4 | – |
| CCON=Cc1ccc(OCCC2CCN(c3ccc(Cl)nn3)CC2)cc1O [Compound 37] | 0.048 | >21 | >1 | 0.010 | >96.0 | – |
| C=CCON=Cc1cc(O)cc(OCCC2CCN(c3ccc(Cl)nn3)CC2)c1 [Compound 40] | 0.4 | >3 | >1 | 0.583 | >1.72 | – |
| CCON=Cc1cccc(OCCC2CCN(c3ccc(Cl)nn3)CC2)c1 [Compound 41] | <0.001 | >1000 | >1 | 0.016 | >63.5 | – |
| C=CCON=Cc1ccc(OCCC2CCN(c3ccc(Cl)nn3)CC2)c(C)c1 [Compound 43] | 0.01 | >100 | >1 | 0.006 | >170 | – |
| CCON=Cc1cc(C)c(OCCC2CCN(c3ccc(Cl)nn3)CC2)c(C)c1 [Compound 45] | 0.03 | >32 | >1 | 0.029 | >34.0 | – |
| CCON=Cc1ccc(OCCC2CCN(c3ccc(Cl)nn3)CC2)cc1 [Compound 57] | 0.00025 | >400 | >0.1 | 0.001 | >56.3 | – |
| CCON=Cc1ccc(OCCCc2cc(C)no2)cc1 [Compound 108] | 0.6 | >1 | >1 | >1 | – | – |
| CCON=Cc1ccc(OCCC2CCN(c3nnc(C(F)(F)F)s3)CC2)cc1 [Compound 154] | – | – | – | – | – | 0.0514 |
| CCON=Cc1ccc(OCCC2CCN(c3cnc(Cl)cn3)CC2)cc1 [Compound 160] | – | – | – | – | – | 0.0502 |
| CCO/N=C/c1c(C)cc(OCCC2CCN(c3ccc(C)nn3)CC2)cc1C [Compound 185] | – | – | – | – | – | 0.0697 |
| CO/N=C/c1c(C)cc(OCCC2CCN(c3ccc(C)nn3)CC2)cc1C [Compound 186] | – | – | – | – | – | 0.0349 |
| CCO/N=C/c1ccc(OCCC2CCN(c3ccc(C)nn3)CC2)cc1OC [Compound 187] | – | – | – | – | – | 0.0103 |
| CCO/N=C/c1ccc(OCCC2CCN(c3ccc(C)nn3)CC2)cc1C [Compound 188] | – | – | – | – | – | 0.0032 |
| CO/N=C/c1ccc(OCCC2CCN(c3ccc(C)nn3)CC2)cc1C [Compound 189] | – | – | – | – | – | 0.0011 |
| CCON=Cc1cc(C)c(OCCC2CCN(c3ccc(C)nn3)CC2)cc1C [Compound 190] | – | – | – | – | – | 0.0593 |
| CON=Cc1cc(C)c(OCCC2CCN(c3ccc(C)nn3)CC2)cc1C [Compound 191] | – | – | – | – | – | 0.0256 |
| CCON=Cc1ccc(OCCC2CCN(c3ccc(C)nn3)CC2)c(C)c1C [Compound 192] | – | – | – | – | – | 0.0258 |
| CON=Cc1ccc(OCCC2CCN(c3ccc(C)nn3)CC2)c(C)c1C [Compound 193] | – | – | – | – | – | 0.0308 |
| CCO/N=C/c1ccc(OCCCCN(C)c2ccc(Cl)nn2)cc1 [Compound 195] | – | – | – | – | – | 0.038 |
